Source: patent US20250170114A1, “METHODS OF TREATMENT USING T-TYPE CALCIUM CHANNEL MODULATORS” (Praxis Precision Medicines, Inc., priority 2022, published 2025)

Tested on: participants with ET
Experiment: Phase 2 trial: treatment-emergent adverse events (TEAEs)
Assay type: in vivo
Description: Part A of the clinical trial was open-label and assessed the safety and tolerability of the study drug, as well as the overall magnitude and pattern of change in ET severity.
Part B of the clinical trial consisted of both an open-label titration phase and a randomized, double-blind, placebo-controlled withdrawal phase. Part B assessed the safety and tolerability of the study drug, as well as the overall magnitude and pattern of change in ET severity and the duration of that effect. […] In the randomized, double-blind, placebo-controlled withdrawal phase, participants were either maintained on their final open-label dose or switched to placebo for an additional 14 days (Days 43 to 56).
Key safety measures included clinical laboratory evaluations, 12-lead ECG, C-SSRS, and vital signs. Key efficacy assessments included the TETRAS Performance subscale, TETRAS Upper Limb using accelerometry, CGI, and PGI-C. Blood samples were obtained for the determination of study drug plasma concentrations using a validated bioanalytical method and may also be used for method development and/or metabolite characterization.
On Day 1, participants received a 20 mg dose of study drug on an empty stomach (at least 1 hour before breakfast). Participants remained in a clinical setting under medical observation for approximately 6 hours. TETRAS Performance assessments were performed before dosing and 6 hours (±2) post-dose. For dosing on Day 2 through Day 41, participants were instructed to dose QAM at least 1 hour before breakfast at home. Participants continued taking study drug 20 mg QAM at home through Day 3. […] On Day 4, participants escalated to 40 mg QAM through Day 7, when they returned to the clinic for safety assessments and efficacy testing. On Day 8, participants escalated to 60 mg QAM through Day 14. […] On Day 15, participants escalated to 80 mg QAM through Day 21, when they returned to the clinic for safety assessments and efficacy testing. On Day 22, participants escalated to 100 mg QAM through Day 28. […] On Day 29, participants escalated to 120 mg QAM through Day 42, when they returned to the clinic for safety assessments and efficacy testing. The dose on Day 42 was taken in the clinic. On Day 35, participants received a telephone call from site staff to inquire about AEs and concomitant medications. On Day 41, participants completed a TETRAS Performance Upper Limb assessment via a telehealth visit. […] Participants could only change to a lower dose level once, and no dose changes were allowed to occur after Day 36.
In both phases, key safety measures included clinical laboratory evaluations, 12-lead ECG, C-SSRS, and vital signs. Key efficacy assessments included the TETRAS Performance subscale, TETRAS Upper Limb using accelerometry, CGI, PGI-C, TETRAS ADL Subscale, QUEST, BDI-II, and BAI. Blood samples were obtained for the determination of study drug and metabolite plasma concentrations.

[1] = Part A, Overall, N = 7, listed as study drug
[2] = Part B - RWD, study drug group, N = 6

CC(C)(C)NC(=O)CN1CCC(CNC(=O)c2cc(F)cc(Cl)c2)CC1.Cl [Study drug]
Drug-related TEAE dizziness (Part A): 3 participants
participants experiencing TEAEs considered related to study drug (Part A): 57.1%
participants who experienced at least 1 TEAE (Part A): 85.7%
Any TEAE (Part A (overall), N = 7): 6 (85.7) n (%)
Any TEAE leading to study drug withdrawal (Part A (overall), N = 7): 1 (14.3) n (%)
Any TEAE related to disease under study (Part A (overall), N = 7): 1 (14.3) n (%)
Any TEAE related to study drug (Part A (overall), N = 7): 4 (57.1) n (%)
Any TEAE related to study procedure (Part A (overall), N = 7): 0 n (%)
Any fatal SAEs (Part A (overall), N = 7): 0 n (%)
Any serious adverse events (Part A (overall), N = 7): 0 n (%)
TEAE Mild (Part A (overall), N = 7): 6 (85.7) n (%)
TEAE Moderate (Part A (overall), N = 7): 1 (14.3) n (%)
TEAE Severe (Part A (overall), N = 7): 0 n (%)
participants who experienced AEs leading to study drug withdrawal (Part A and open-label titration phase of Part B together): 7 participants
Any TEAE (Part A, 20 mg, N = 7): 6 (85.7) n (%)
TEAE PT Dizziness (Part A, 20 mg, N = 7): 4 (57.1) n (%)
TEAE PT Headache (Part A, 20 mg, N = 7): 3 (42.9) n (%)
TEAE SOC Nervous System Disorders (Part A, 20 mg, N = 7): 6 (85.7) n (%)
TEAE SOC Psychiatric Disorders (Part A, 20 mg, N = 7): 2 (28.6) n (%)
Any TEAE (Part A, 40 mg, N = 6): 2 (33.3) n (%)
TEAE PT Dizziness (Part A, 40 mg, N = 6): 0 n (%)
TEAE PT Headache (Part A, 40 mg, N = 6): 1 (16.7) n (%)
TEAE SOC Nervous System Disorders (Part A, 40 mg, N = 6): 1 (16.7) n (%)
TEAE SOC Psychiatric Disorders (Part A, 40 mg, N = 6): 0 n (%)
Any TEAE (Part A, Overall, N = 7): 6 (85.7) n (%)
TEAE PT Dizziness (Part A, Overall, N = 7): 4 (57.1) n (%)
TEAE PT Headache (Part A, Overall, N = 7): 3 (42.9) n (%)
TEAE SOC Nervous System Disorders (Part A, Overall, N = 7): 6 (85.6) n (%)
TEAE SOC Psychiatric Disorders (Part A, Overall, N = 7): 2 (28.6) n (%)
Any TEAE leading to study drug withdrawal [1]: 1 n (%)
TEAE PT Dizziness [1]: 4 n (%)
TEAE PT Headache [1]: 3 n (%)
Any TEAE (Part B - OLT, N = 17): 15 n (%)
Any TEAE leading to study drug withdrawal (Part B - OLT, N = 17): 6 n (%)
Any TEAE related to disease under study (Part B - OLT, N = 17): 1 n (%)
Any TEAE related to study drug (Part B - OLT, N = 17): 12 n (%)
Any TEAE related to study procedure (Part B - OLT, N = 17): 0 n (%)
Any fatal SAEs (Part B - OLT, N = 17): 0 n (%)
Any serious adverse events (Part B - OLT, N = 17): 1 n (%)
TEAE Mild (Part B - OLT, N = 17): 13 n (%)
TEAE Moderate (Part B - OLT, N = 17): 7 n (%)
TEAE Severe (Part B - OLT, N = 17): 0 n (%)
Any TEAE [2]: 1 (16.7) n (%)
Any TEAE leading to study drug withdrawal [2]: 0 n (%)
Any TEAE related to disease under study [2]: 0 n (%)
Any TEAE related to study drug [2]: 0 n (%)
Any TEAE related to study procedure [2]: 0 n (%)
Any fatal SAEs [2]: 0 n (%)
Any serious adverse events [2]: 0 n (%)
TEAE Mild [2]: 1 (16.7) n (%)
TEAE Moderate [2]: 1 (16.7) n (%)
TEAE Severe [2]: 0 n (%)
Any TEAE (Part B - RWD, study drug group, N = 6, listed as study drug): 1 n (%)
Any TEAE (Part B, 20 mg, N = 17): 10 n (%)
PT Cognitive disorder (Part B, 20 mg, N = 17): 2 n (%)
PT Constipation (Part B, 20 mg, N = 17): 1 n (%)
PT Dizziness (Part B, 20 mg, N = 17): 4 n (%)
PT Fatigue (Part B, 20 mg, N = 17): 2 n (%)
PT Insomnia (Part B, 20 mg, N = 17): 1 n (%)
SOC Gastrointestinal Disorders (Part B, 20 mg, N = 17): 3 n (%)
SOC General Disorders and Administration Site Conditions (Part B, 20 mg, N = 17): 2 n (%)
SOC Musculoskeletal and Connective Tissue Disorders (Part B, 20 mg, N = 17): 1 n (%)
SOC Nervous System Disorders (Part B, 20 mg, N = 17): 8 n (%)
SOC Psychiatric Disorders (Part B, 20 mg, N = 17): 1 n (%)
SOC Vascular Disorders (Part B, 20 mg, N = 17): 0 n (%)
Any TEAE (Part B, 40 mg, N = 15): 8 n (%)
PT Cognitive disorder (Part B, 40 mg, N = 15): 1 n (%)
PT Constipation (Part B, 40 mg, N = 15): 3 n (%)
PT Dizziness (Part B, 40 mg, N = 15): 1 n (%)
PT Fatigue (Part B, 40 mg, N = 15): 1 n (%)
PT Insomnia (Part B, 40 mg, N = 15): 2 n (%)
SOC Gastrointestinal Disorders (Part B, 40 mg, N = 15): 3 n (%)
SOC General Disorders and Administration Site Conditions (Part B, 40 mg, N = 15): 2 n (%)
SOC Musculoskeletal and Connective Tissue Disorders (Part B, 40 mg, N = 15): 0 n (%)
